Activity and GI50 data for seven compounds are collected here from ChEMBL document CHEMBL4229330, “Synthesis and evaluation of C2 functionalized analogs of the α-tubulin-binding natural product pironetin” (Bioorg Med Chem Lett, 2018).

Common to all, as to format: cell-based
For assay [1], the system named is A2780. The assay is described as follows: Binding affinity to alpha tubulin in human A2780 cells assessed as disruption of tubulin polymerization by measuring cell proliferation at higher concentration after 48 hrs by CellTiter non-radioactive assay relative to control.
Assay [2] has as its system A2780. The assay is described as follows: Binding affinity to alpha tubulin in human A2780 cells assessed as disruption of tubulin polymerization by measuring reduction in cell proliferation after 48 hrs by CellTiter non-radioactive assay.
Assay [3] is filed under the species Homo sapiens. Kind of assay: Binding affinity to alpha tubulin in human OVCAR5 cells assessed as disruption of tubulin polymerization by measuring reduction in cell proliferation after 48 hrs by CellTiter non-radioactive assay.

As a reminder, the GI50 is the concentration at which growth is held to half of that of the control.

Structures are written as SMILES. Bounds are passed on as bounds.

On to `C/C=C/C[C@H](C)[C@@H](OC)[C@@H](C)[C@H](O)C[C@H]1OC(=O)C(F)=C[C@H]1CC`, for which, in assay [1], the Activity was 10 to 20%. Further, the GI50 in assay [2] amounted to 5.11 µM; in assay [3], 3.24 µM.

Take `C/C=C/C[C@H](C)[C@@H](OC)[C@@H](C)[C@H](O)C[C@H]1OC(=O)C=C[C@H]1CC`: the Activity in assay [1] was in the range of 10 to 20%. The GI50 in assay [2] amounted to 0.0243 µM; in assay [3], 0.0144 µM.

For the compound `C/C=C/C[C@H](C)[C@@H](OC)[C@@H](C)[C@H](O)C[C@H]1OC(=O)C(C)=C[C@H]1CC`, the Activity in assay [1] was 10 to 20%. The GI50 in assay [2] was found to be 10.2 µM; in assay [3] it was 3.36 µM.

In the case of `CC(=O)O[C@H]1C(=O)[C@@]2(C)[C@H]([C@H](OC(=O)c3ccccc3)[C@]3(O)C[C@H](OC(=O)[C@H](O)[C@@H](NC(=O)c4ccccc4)c4ccccc4)C(C)=C1C3(C)C)[C@]1(OC(C)=O)CO[C@@H]1C[C@@H]2O`, the Activity in assay [1] is 10 to 20%. In addition, the concentration for 50% growth inhibition (GI50) in assay [2] stood at 0.00753 µM; in assay [3], 0.021 µM.

With `C/C=C/C[C@H](C)[C@@H](OC)[C@@H](C)[C@H](O)C[C@H]1OC(=O)C(Cl)=C[C@H]1CC`, in assay [1], the Activity fell in the range of 10 to 20%. Also, the GI50 in assay [2] is 4.48 µM; in assay [3], 1.08 µM.

Regarding `C/C=C/C[C@H](C)[C@@H](OC)[C@@H](C)[C@H](O)C[C@H]1OC(=O)C(c2ccccc2)=C[C@H]1CC`, in assay [1], the Activity was in the range of 10 to 20%. Besides, the GI50 in assay [2] and in assay [3] was over 50 µM throughout.

Consider `C/C=C/C[C@H](C)[C@@H](OC)[C@@H](C)[C@H](O)C[C@H]1OC(=O)C(Br)=C[C@H]1CC`, for which the Activity in assay [1] is under 10%. The figures for the GI50 in assay [2] and in assay [3] were 0.901 µM and 0.0449 to 26.2 µM, respectively.
